Source: paper PMC10584170, “Machine learning-based phenotypic imaging to characterise the targetable biology of Plasmodium falciparum male gametocytes for the development of transmission-blocking antimalarials” (PLOS Pathogens, 2023)

Tests used:
[1] = tested on: P. falciparum male gametocytes; assay: P. falciparum Dual Gamete Formation Assay (PfDGFA), male readout (exflagellation); format: cell-based, Plasmodium falciparum NF54; conditions: for Average inhibition male (%): average of replicates; for % inhibition male (individual replicates) R1: replicate R1; for % inhibition male (individual replicates) R3: replicate R3; for % inhibition male (individual replicates) R4: replicate R4; for Activity: hit = >50% inhibition in male or female readout in at least 3 replicates, 0 = no class assigned
Procedure, shortened: (§1)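 Mature NF54 gametocytes (day 14) were incubated with compound for 24 h at 37°C under 1% O2/3% CO2, then triggered with xanthurenic acid ookinete medium plus Cy3-anti-Pfs25. Exflagellation was imaged by brightfield; after a further 24 h at 28°C, Pfs25-positive female gametes were imaged by fluorescence and counted by automated image analysis.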

[2] = tested on: P. falciparum female gametocytes; assay: P. falciparum Dual Gamete Formation Assay (PfDGFA), female readout (Pfs25-positive female gametes); format: cell-based, Plasmodium falciparum NF54; conditions: for Average inhibition female (%): average of replicates; for % inhibition female (individual replicates) R1: replicate R1; for % inhibition female (individual replicates) R3: replicate R3; for % inhibition female (individual replicates) R4: replicate R4
Procedure, shortened: as §1

[3] = 2µM, 24h preincubation with gametocytes prior to induction of gametogenesis
[4] = 2µM, 24h preincubation, hits selected on >50% inhibition in the male readout across replicates
[5] = PfDGFA at 2µM, 24h preincubation
[6] = 2µM, 24h preincubation, hits selected on >50% inhibition in the female readout across replicates
[7] = PfDGFA at 2µM, 24h preincubation with gametocytes prior to induction of gametogenesis
[8] = 2µM, 24h preincubation with gametocytes
[9] = 2µM, 24h preincubation, number of replicates with >50% inhibition in the male readout
[10] = 2µM, 24h preincubation, number of replicates with >50% inhibition in the female readout
[11] = PfDGFA at 2µM, 24h preincubation with gametocytes
[12] = number of replicates with >50% inhibition in the male readout, 2µM
[13] = number of replicates with >50% inhibition in the female readout, 2µM

Cl.Nc1nc(N)c2c(ccc3c2ccn3C2CCCCC2)n1 [TCMDC-137871]
Average inhibition male (%) [1, 3]: 11.6% | % inhibition male (individual replicates) R1 [1, 3]: 19.6% | % inhibition male (individual replicates) R3 [1, 3]: 1.6% | % inhibition male (individual replicates) R4 [1, 3]: -3.1% | HitlevelM [1, 4]: 0 | Activity [1, 5]: 0 | Average inhibition female (%) [2, 3]: 10.6% | % inhibition female (individual replicates) R1 [2, 3]: -11.4% | % inhibition female (individual replicates) R3 [2, 3]: 35.4% | % inhibition female (individual replicates) R4 [2, 3]: 4.9% | HitlevelF [2, 6]: 0

Cc1ccc2c(Cc3cnc(N)nc3N)cc(C)c(N)c2n1.Cl [TCMDC-137878]
% inhibition male (individual replicates) R1 [1, 7]: 10.8% | % inhibition male (individual replicates) R4 [1, 7]: 0.8% | Average inhibition male (%) [1, 5]: 15.3% | % inhibition female (individual replicates) R1 [2, 7]: 1.9% | % inhibition female (individual replicates) R3 [2, 7]: 4.6% | % inhibition female (individual replicates) R4 [2, 7]: 2.9% | Average inhibition female (%) [2, 5]: -0.2%

Cl.N=C(N)NN=Cc1c2ccc(Cl)cc2c(Cl)c2ccc(Cl)cc12 [TCMDC-137884]
Average inhibition male (%) [1, 8]: 92.6% | % inhibition male (individual replicates) R1 [1, 8]: 97.0% | % inhibition male (individual replicates) R3 [1, 8]: 80.2% | % inhibition male (individual replicates) R4 [1, 8]: 97.6% | Average inhibition female (%) [2, 8]: 57.1% | % inhibition female (individual replicates) R1 [2, 8]: 33.5% | % inhibition female (individual replicates) R3 [2, 8]: 56.7% | % inhibition female (individual replicates) R4 [2, 8]: 75.9%

O=C(NCc1ccccc1[S+]([O-])c1ccccc1CO)C(F)(F)F (stereo not drawn) [TCMDC-137886]
% inhibition male (individual replicates) R1 [1, 7]: 18.6% | % inhibition male (individual replicates) R3 [1, 7]: -28.2% | % inhibition male (individual replicates) R4 [1, 7]: -31.1% | Average inhibition male (%) [1, 5]: -8.4% | % inhibition female (individual replicates) R1 [2, 7]: 9.6% | % inhibition female (individual replicates) R3 [2, 7]: -29.2% | % inhibition female (individual replicates) R4 [2, 7]: 19.1% | Average inhibition female (%) [2, 5]: 3.3%

Cl.Nc1ncc(Cc2cc(Cl)c(N)c3ncccc23)c(N)n1 [TCMDC-137889]
% inhibition male (individual replicates) R1 [1, 7]: 6.1% | % inhibition male (individual replicates) R3 [1, 7]: -28.8% | % inhibition male (individual replicates) R4 [1, 7]: -13.1% | Average inhibition male (%) [1, 5]: -7.9% | % inhibition female (individual replicates) R1 [2, 7]: 12.6% | % inhibition female (individual replicates) R3 [2, 7]: -23.8% | % inhibition female (individual replicates) R4 [2, 7]: 5.5% | Average inhibition female (%) [2, 5]: -0.8%

Cl.c1ccc2c(NCCCCCCCNc3ccnc4ccccc34)ccnc2c1 [TCMDC-137897]
Average inhibition male (%) [1, 3]: 23.4% | % inhibition male (individual replicates) R1 [1, 3]: 24.9% | % inhibition male (individual replicates) R3 [1, 3]: -14.5% | % inhibition male (individual replicates) R4 [1, 3]: 54.2% | HitlevelM [1, 9]: 1 | Average inhibition female (%) [2, 3]: 26.1% | % inhibition female (individual replicates) R1 [2, 3]: 24.7% | % inhibition female (individual replicates) R3 [2, 3]: -5.3% | % inhibition female (individual replicates) R4 [2, 3]: 43.2% | HitlevelF [2, 10]: 0

Cl.c1ccc2c(c1)cc(CNCCCN1CCN(CCCNCc3cc4ccccc4c4ccccc34)CC1)c1ccccc12 [TCMDC-137914]
Average inhibition male (%) [1, 3]: 5.2% | % inhibition male (individual replicates) R1 [1, 3]: 10.5% | % inhibition male (individual replicates) R3 [1, 3]: -10.9% | % inhibition male (individual replicates) R4 [1, 3]: 23.6% | HitlevelM [1, 9]: 0 | Average inhibition female (%) [2, 3]: 20.8% | % inhibition female (individual replicates) R1 [2, 3]: 24.6% | % inhibition female (individual replicates) R3 [2, 3]: 15.0% | % inhibition female (individual replicates) R4 [2, 3]: 14.7% | HitlevelF [2, 10]: 0

CCc1nc(N)nc(N)c1CCCOc1ccccc1Cl.Cl [TCMDC-137928]
Average inhibition male (%) [1, 3]: -0.378% | % inhibition male (individual replicates) R1 [1, 3]: 19.6% | % inhibition male (individual replicates) R3 [1, 3]: 1.0% | % inhibition male (individual replicates) R4 [1, 3]: -29.1% | HitlevelM [1, 4]: 0 | Activity [1, 5]: 0 | Average inhibition female (%) [2, 3]: 14.6% | % inhibition female (individual replicates) R1 [2, 3]: 20.2% | % inhibition female (individual replicates) R3 [2, 3]: 26.6% | % inhibition female (individual replicates) R4 [2, 3]: 2.3% | HitlevelF [2, 6]: 0

CCOc1cc2ccccc2cc1CNCCCCCCNCc1cc2ccccc2cc1OCC.CS(=O)(=O)O [TCMDC-137940]
Average inhibition male (%) [1, 3]: -10.2% | % inhibition male (individual replicates) R1 [1, 3]: -8.8% | % inhibition male (individual replicates) R3 [1, 3]: -9.1% | % inhibition male (individual replicates) R4 [1, 3]: -15.1% | HitlevelM [1, 4]: 0 | Activity [1, 5]: 0 | Average inhibition female (%) [2, 3]: 10.1% | % inhibition female (individual replicates) R1 [2, 3]: 11.4% | % inhibition female (individual replicates) R3 [2, 3]: 8.9% | % inhibition female (individual replicates) R4 [2, 3]: 5.4% | HitlevelF [2, 6]: 0

CCOc1c(CNCCCCCCNCc2ccc3ccccc3c2OCC)ccc2ccccc12.CS(=O)(=O)O [TCMDC-137942]
Average inhibition male (%) [1, 11]: 82.7% | % inhibition male (individual replicates) R1 [1, 11]: 76.8% | % inhibition male (individual replicates) R3 [1, 11]: 64.7% | % inhibition male (individual replicates) R4 [1, 11]: 98.9% | HitlevelM [1, 12]: 4 | Average inhibition female (%) [2, 11]: 35.4% | % inhibition female (individual replicates) R1 [2, 11]: 30.1% | % inhibition female (individual replicates) R3 [2, 11]: 19.1% | % inhibition female (individual replicates) R4 [2, 11]: 50.5% | HitlevelF [2, 13]: 1

CCCc1cc2c3c(N)nc(N)nc3ccc2n1CC [TCMDC-137946]
Average inhibition male (%) [1, 8]: 95.8% | % inhibition male (individual replicates) R1 [1, 8]: 97.3% | % inhibition male (individual replicates) R3 [1, 8]: 96.2% | % inhibition male (individual replicates) R4 [1, 8]: 104.1% | Average inhibition female (%) [2, 8]: 82.6% | % inhibition female (individual replicates) R1 [2, 8]: 82.8% | % inhibition female (individual replicates) R3 [2, 8]: 88.8% | % inhibition female (individual replicates) R4 [2, 8]: 84.8%

CCCC(CC)n1ccc2c3c(N)nc(N)nc3ccc21.CS(=O)(=O)O (stereo not drawn) [TCMDC-137948]
% inhibition male (individual replicates) R1 [1, 7]: 21.2% | % inhibition male (individual replicates) R3 [1, 7]: 21.4% | % inhibition male (individual replicates) R4 [1, 7]: 12.8% | Average inhibition male (%) [1, 5]: 22.4% | % inhibition female (individual replicates) R1 [2, 7]: -1.7% | % inhibition female (individual replicates) R3 [2, 7]: -3.2% | % inhibition female (individual replicates) R4 [2, 7]: -13.6% | Average inhibition female (%) [2, 5]: -8.1%

CCCC(CCC)n1ccc2c3c(N)nc(N)nc3ccc21.Cl [TCMDC-137949]
% inhibition male (individual replicates) R1 [1, 7]: 35.5% | % inhibition male (individual replicates) R3 [1, 7]: 0.4% | % inhibition male (individual replicates) R4 [1, 7]: -40.5% | Average inhibition male (%) [1, 5]: 0.9% | % inhibition female (individual replicates) R1 [2, 7]: 4.6% | % inhibition female (individual replicates) R3 [2, 7]: 19.1% | % inhibition female (individual replicates) R4 [2, 7]: -10.8% | Average inhibition female (%) [2, 5]: 3.5%

CCCOc1c(CCNCCCCNCCc2ccc3ccccc3c2OCCC)ccc2ccccc12.CS(=O)(=O)O [TCMDC-137950]
Average inhibition male (%) [1, 11]: 74.1% | % inhibition male (individual replicates) R1 [1, 11]: 87.0% | % inhibition male (individual replicates) R3 [1, 11]: 74.0% | % inhibition male (individual replicates) R4 [1, 11]: 95.7% | HitlevelM [1, 12]: 3 | Average inhibition female (%) [2, 11]: 65.5% | % inhibition female (individual replicates) R1 [2, 11]: 72.1% | % inhibition female (individual replicates) R3 [2, 11]: 62.6% | % inhibition female (individual replicates) R4 [2, 11]: 79.5% | HitlevelF [2, 13]: 3

COc1cc2ccccc2cc1CNCCCCCCNCc1cc2ccccc2cc1OC.CS(=O)(=O)O [TCMDC-137955]
Average inhibition male (%) [1, 3]: 53.1% | % inhibition male (individual replicates) R1 [1, 3]: 58.5% | % inhibition male (individual replicates) R3 [1, 3]: -7.9% | % inhibition male (individual replicates) R4 [1, 3]: 78.9% | HitlevelM [1, 9]: 3 | Average inhibition female (%) [2, 3]: 14.7% | % inhibition female (individual replicates) R1 [2, 3]: 13.5% | % inhibition female (individual replicates) R3 [2, 3]: -9.9% | % inhibition female (individual replicates) R4 [2, 3]: 5.4% | HitlevelF [2, 10]: 0

Cc1cc2c3c(N)nc(N)nc3ccc2n1C [TCMDC-137957]
Average inhibition male (%) [1, 3]: 2.4% | % inhibition male (individual replicates) R1 [1, 3]: -0.85% | % inhibition male (individual replicates) R3 [1, 3]: -3.6% | % inhibition male (individual replicates) R4 [1, 3]: 3.4% | HitlevelM [1, 9]: 0 | Average inhibition female (%) [2, 3]: 31.9% | % inhibition female (individual replicates) R1 [2, 3]: 39.3% | % inhibition female (individual replicates) R3 [2, 3]: 32.6% | % inhibition female (individual replicates) R4 [2, 3]: 34.2% | HitlevelF [2, 10]: 0

Nc1nc(N)c2c(ccc3c2ccn3CCCCO)n1 [TCMDC-137959]
% inhibition male (individual replicates) R1 [1, 7]: 21.0% | % inhibition male (individual replicates) R4 [1, 7]: -1.8% | Average inhibition male (%) [1, 5]: 15.1% | % inhibition female (individual replicates) R1 [2, 7]: -0.01% | % inhibition female (individual replicates) R3 [2, 7]: -3.7% | % inhibition female (individual replicates) R4 [2, 7]: 2.0% | Average inhibition female (%) [2, 5]: -0.9%

Nc1nc(N)c2c(ccc3nn(C4CCCC4)cc32)n1 [TCMDC-137960]
Average inhibition male (%) [1, 3]: -1.6% | % inhibition male (individual replicates) R1 [1, 3]: 13.2% | % inhibition male (individual replicates) R4 [1, 3]: -27.5% | HitlevelM [1, 4]: 0 | Activity [1, 5]: 0 | Average inhibition female (%) [2, 3]: 4.4% | % inhibition female (individual replicates) R1 [2, 3]: 5.0% | % inhibition female (individual replicates) R3 [2, 3]: 5.0% | % inhibition female (individual replicates) R4 [2, 3]: 9.1% | HitlevelF [2, 6]: 0
